Assay results reported in patent US20070179175A1, “Tetrahydronaphthyridine Derivative” (priority 2005, published 2007).

How the values were obtained:
hERG channel = target: T1, hERG channel (Homo sapiens, UniProt Q12809); assay: hERG patch clamp assay; format: cell-based; conditions: HEK293 cells stably expressing hERG; whole-cell patch clamp, 26.5-28.5° C.
T1 construct: expressed in transfected cells
Experimental: To determine the potential of compounds to inhibit the hERG channel, the cloned counterpart of the […] delayed rectifier potassium current (IKr), HEK293 cells stably expressing the hERG channel were used in whole-cell patch clamp electrophysiology studies at ambient temperature (26.5-28.5° C.). The methodology for stable transfection of this channel in HEK293 cells can be found elsewhere (Zhou et al 1998, Biophysical Journal, 74, pp 230-241). The solutions used for experimentation were standard extracellular solution of the following composition (mM); NaCl, 137; KCl, 4; CaCl2, 1.8; MgCl2, 1; Glucose, 10; HEPES, 10; pH 7.4±0.05 with NaOH/HCl; and standard intracellular solution of the following composition (mM); KCl 130; MgCl2, 1; HEPES, 10; EGTA, 5; MgATP, 5; pH 7.2±0.05 with KOH. The voltage protocol applied was designed to activate the hERG channel and allow the measurement of drug block of the channel and is as follows. First the membrane potential was stepped from a holding potential of −80 mV to +30 mV for 1s. This was followed by a descending voltage ramp at a rate of 0.5 mV/ms back to holding potential of −80 mV and the peak outward current observed during the repolarizing ramp was measured. This protocol was evoked repeatedly every 4 seconds (0.25 Hz). […]

[1] = target: T2, human histamine H3 receptor (Homo sapiens, UniProt Q9Y5N1); assay: H3 cell based functional assay (cAMP, β-lactamase reporter gene)
T2 construct: expressed in transfected cells; host or cells: HEK-293 cells expressing a CRE beta-lactamase reporter gene
T2 sequence (Q9Y5N1 whole entry): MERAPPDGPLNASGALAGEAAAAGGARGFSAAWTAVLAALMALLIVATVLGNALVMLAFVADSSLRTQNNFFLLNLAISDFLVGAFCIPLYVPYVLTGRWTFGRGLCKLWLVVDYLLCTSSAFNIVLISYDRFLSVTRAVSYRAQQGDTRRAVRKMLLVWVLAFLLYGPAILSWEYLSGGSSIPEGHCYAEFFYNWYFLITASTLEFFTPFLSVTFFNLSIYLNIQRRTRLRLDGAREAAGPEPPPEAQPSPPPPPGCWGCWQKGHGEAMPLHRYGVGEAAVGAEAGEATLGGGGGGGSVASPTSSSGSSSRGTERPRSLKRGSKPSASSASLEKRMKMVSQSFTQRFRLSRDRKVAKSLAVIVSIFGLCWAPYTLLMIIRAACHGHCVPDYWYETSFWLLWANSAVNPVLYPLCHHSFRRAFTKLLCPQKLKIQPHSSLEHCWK
Experimental: The compound was evaluated using a cell based functional assay measuring cAMP through β-lactamase reporter gene activity. A stable cell line was generated from HEK-293 cells expressing a CRE β-lactamase reporter gene and transfected with human histamine H3 receptor cDNA. Cells were seeded at a density of 500,000 cells/ml, and grown overnight in MEM (Invitrogen) supplemented with 1% dialysed FBS (Sigma), 2 mM glutamine (Sigma), 1 mM sodium pyruvate (Sigma), 0.1 mM non essential amino acids (Invitrogen) and 25 mM HEPES (Sigma) in poly D lysine coated 384 well plates (BD Biosciences). […] For IC50 determination, the test compound was prepared in PBS (Sigma) and DMSO (Sigma) at a dose response of 5×10^−10 to 5×10^−5 M with a final DMSO concentration in the assay of 0.5%. Cells were incubated for 15 minutes plus/minus compound and their ability to permit 10 μM forskolin-stimulated cAMP synthesis in the presence of 1 nM imetit was measured as described above.

T1 sequence (Q12809 whole entry): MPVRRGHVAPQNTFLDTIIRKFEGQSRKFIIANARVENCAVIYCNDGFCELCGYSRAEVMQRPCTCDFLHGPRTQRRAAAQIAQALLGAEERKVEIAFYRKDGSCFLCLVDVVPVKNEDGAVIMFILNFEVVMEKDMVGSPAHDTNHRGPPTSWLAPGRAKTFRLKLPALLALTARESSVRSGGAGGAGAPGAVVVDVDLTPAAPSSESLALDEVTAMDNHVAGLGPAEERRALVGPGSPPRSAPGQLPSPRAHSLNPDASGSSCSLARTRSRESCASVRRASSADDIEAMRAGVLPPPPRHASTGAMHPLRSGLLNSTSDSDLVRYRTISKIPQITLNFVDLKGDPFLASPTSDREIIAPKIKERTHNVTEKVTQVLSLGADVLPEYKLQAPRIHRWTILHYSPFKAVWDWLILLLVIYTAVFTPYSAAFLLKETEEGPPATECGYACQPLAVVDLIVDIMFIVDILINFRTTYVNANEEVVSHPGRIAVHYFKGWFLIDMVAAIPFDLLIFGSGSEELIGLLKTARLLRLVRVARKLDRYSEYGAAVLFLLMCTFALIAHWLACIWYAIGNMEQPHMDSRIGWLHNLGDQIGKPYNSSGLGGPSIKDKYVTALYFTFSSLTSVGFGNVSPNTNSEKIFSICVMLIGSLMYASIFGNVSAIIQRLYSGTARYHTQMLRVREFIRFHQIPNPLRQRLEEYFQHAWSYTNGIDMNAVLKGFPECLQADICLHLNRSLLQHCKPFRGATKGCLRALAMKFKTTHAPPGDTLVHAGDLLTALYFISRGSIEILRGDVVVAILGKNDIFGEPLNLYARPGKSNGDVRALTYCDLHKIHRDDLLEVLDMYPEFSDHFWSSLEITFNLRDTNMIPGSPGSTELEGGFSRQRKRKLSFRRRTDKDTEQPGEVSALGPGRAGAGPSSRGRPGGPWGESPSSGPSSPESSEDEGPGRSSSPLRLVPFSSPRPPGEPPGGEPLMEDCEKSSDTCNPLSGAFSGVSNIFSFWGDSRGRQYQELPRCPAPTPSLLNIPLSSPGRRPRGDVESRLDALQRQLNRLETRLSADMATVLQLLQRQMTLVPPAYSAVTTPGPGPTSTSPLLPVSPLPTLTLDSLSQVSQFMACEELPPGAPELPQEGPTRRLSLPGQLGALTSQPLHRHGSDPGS

Ki ([1]; HEK-293 CRE β-lactamase cells, antagonism of 1 nM imetit, 10 μM forskolin, Ki calculated from IC50 by the Cheng-Prussoff equation) | SMILES | IC50 (hERG channel) | EC50 [1]
2.6 nM | CC(C)N1CCC(Oc2ccc3c(n2)CCN(c2ccc(C(N)=O)cn2)C3)CC1 [Example 1, 6-[2-(1-Isopropyl-piperidin-4-yloxy)-7,8-dihydro-5H-[1,6]naphthyridin-6-yl]-nicotinamide] | 22200 nM | 
 | N=C(N)SCCc1cnc[nH]1 [imetit, reference compound] |  | 0.35 nM
